Target: T1, BLS (β-lactam synthetase), polyhistidine tagged (Streptomyces clavuligerus, UniProt P0DJQ7)
T1 construct: made in house; host or cells: E. coli BL21(DE3), co-expressed with chaperonin GroELS
T1 sequence (P0DJQ7 1-513): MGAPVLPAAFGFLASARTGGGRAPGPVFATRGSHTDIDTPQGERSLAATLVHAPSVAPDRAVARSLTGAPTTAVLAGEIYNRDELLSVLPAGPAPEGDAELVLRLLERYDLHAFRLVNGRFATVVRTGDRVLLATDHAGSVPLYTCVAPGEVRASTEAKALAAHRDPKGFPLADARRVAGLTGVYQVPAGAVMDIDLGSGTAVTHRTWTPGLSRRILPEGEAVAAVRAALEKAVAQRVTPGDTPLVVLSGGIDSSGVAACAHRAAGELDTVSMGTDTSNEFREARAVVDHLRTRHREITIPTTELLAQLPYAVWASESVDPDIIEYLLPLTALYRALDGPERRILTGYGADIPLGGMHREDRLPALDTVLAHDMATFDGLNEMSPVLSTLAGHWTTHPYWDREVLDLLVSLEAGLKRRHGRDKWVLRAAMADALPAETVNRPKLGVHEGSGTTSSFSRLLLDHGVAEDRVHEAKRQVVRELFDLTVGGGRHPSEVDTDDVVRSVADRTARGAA
Test: fluorescence detection pre-column derivatised HPLC substrate assay with polyhistidine tagged BLS
Format: biochemical
Excerpt: The bls gene has previously been expressed at relatively low levels using a pET24a(+) construct and purified by an involved two column protocol giving low overall yields (McNaughton, H. J.; Thirkettle, J. E.; Zhang, Z. H.; Schofield, C. J.; Jensen, S. E.; Barton, B.; Greaves, P. J. Chem. Soc., Chem. Commun. 1998, 2325-2326; Bachmann, B. O.; Townsend, C. A. Biochemistry 2000, 39, 11187-11193). To facilitate purification a polyhistidine tagged form of BLS (β-lactam synthetase) was produced by cloning bis into the pET28a(+) vector (from Novagen). […]
The bls gene in the vector pET28a(+) and a plasmid bearing the chaperonin GroELS^13 were simultaneously transformed into E. coli BL21(DE3) for co-expression. […] When the absorbance at 600 nm reached ˜1.0, IPTG was added to a final concentration of 1.0 mM and the cells harvested 16 hours later by centrifugation. […]
The 2-methylated substrate analogue (6) was initially assayed as a substrate for BLS using a fluorescence detection pre-column derivatised HPLC assay based on the work of Kai et al (Kai, M.; Miyazaki, T.; Yamaguchi, M.; Ohkura, Y. J. Chromatogr. 1983, 425-436). […]
Reactions were incubated at 37° C. for 15 minutes and then derivatised. […] Fluorescence was measured at 425 nm against 325 nm excitation. […]

2-Methyl CEA
relative substrate efficiency of the two 2-methyl epimers (larger scale incubation, product isolated by HPLC, 1H NMR (500 MHz) analysis): both epimers are approximately equally efficient substrates
conversion of 2-methyl CEA (6) to 2-methyl DGPC (9) (standard assay conditions: 2 mM substrate, 5 mM ATP, 10 mM MgCl2, pH 9, ca. 74 μg enzyme, 37° C., 15 minutes): ca. 50%
